According to patent US9260436B2 (Sumitomo Chemical Company, Limited, priority 2012, dated 2016):

Tests used:
Aphis gossypii = experiment: Test Example 2: foot drench of cucumber seedling, then inoculation with Aphis gossypii; assay type: in vivo; conditions: 500 ppm, 5 ml drenched at foot of cucumber seedling, 7 days then inoculation, further 6 days
Method: On the other hand, a cucumber seedling (the second true leaf stage) planted in a plastic cup was drenched at its foot with 5 ml of the test drug solution, and kept in a greenhouse at 25° C. for 7 days. On the cucumber leaf surface was inoculated 30 Aphis gossypii (whole stage), and further kept in the greenhouse for 6 days, then the number of surviving Aphis gossypii parasitized on the leaves of the cucumber was examined, and the controlling value was calculated according to the following equation: Controlling value (%)={1−(Cb×Tai)/(Cai×Tb)}×100 wherein the symbols represent as follows: Cb: the number of insects in a non-treated section before treatment, Cai: the number of insects in a non-treated section on observation, Tb: the number of insects in a treated section before treatment, Tai: the number of insects in a treated section on observation, wherein the non-treated section refers to a section where the test drug solution prepared by diluting the formulation not containing the compound of the present invention as in Formulation Example 5 with the same amount of water as in the treated section was sprayed.

[1] = tested on: Haemaphysalis longicornis; experiment: Test Example 11: coated screw tube contact test, Haemaphysalis longicornis nymphal ticks; assay type: in vivo; conditions: 48 h, 2 mg compound in 0.2 mL acetone coated on inner wall of screw tube, after 2 days, read-out: death rate
Method: 2 mg of each of Compounds of Present Invention 6, 8, 10, 26, 28, 29, 33, 35 and 37 was weighed in a screw tube (Maruemu No. 5; 27×55 mm), and 0.2 mL of acetone was added thereto and sealed with a cap to dissolve the compound. The screw tube was rotated and inverted to uniformity coat the drug solution onto the whole inner wall of the tube. After removing the cap, the solution was air-dried for about 2 hours, then non-blood-sucking nymphal ticks, Haemaphysalis longicornis (5 ticks/group) were released, and the tube was sealed with the cap. After 2 days, the number of dead ticks was examined, and the death rate was calculated according to the following equation: Death rate (%)=100×(Number of dead ticks/Number of tested ticks).

SMILES | controlling value (Aphis gossypii) [%] | pest or weed control at 2 mg/tube [1] [%]
CCS(=O)(=O)c1ccccc1-c1cnc2nc(C(F)(F)F)cn2c1 | ≥ 90 | –
CCCNc1nc(-c2ccccc2SCC)nc2cc(C(F)(F)F)ccc12 [Compound of Present Invention 8, 2-(2-ethylsulfanylphenyl)-4-propylamino-7-trifluoromethylquinazoline] | – | 100
CCCNc1nc(-c2ccccc2S(=O)(=O)CC)nc2cc(C(F)(F)F)ccc12 [Compound of Present Invention 10, 2-(2-ethylsulfonylphenyl)-4-propylamino-7-trifluoromethylquinazoline] | – | 100
CCSc1ccccc1-c1ccc2nc(C(F)(F)F)cn2c1 [Compound of Present Invention 26, 6-(2-ethylsulfanylphenyl)-2-trifluoromethylimidazo[1,2-a]pyridine] | – | 100
CCSc1ccccc1-c1ccc2nc(C(F)(F)F)cn2c1C [Compound of Present Invention 28, 6-(2-ethylsulfanylphenyl)-5-methyl-2-trifluoromethylimidazo [1,2-a]pyridine] | – | 100
CCSc1ccccc1-c1ccc2nc(C(F)(F)C(F)(F)F)cn2c1C [Compound of Present Invention 29, 6-(2-ethylsulfanylphenyl)-5-methyl-2-pentafluoroethylimidazo[1,2-a]pyridine] | – | 100
CCSc1ccccc1-c1ccc2nc(C(F)(F)F)cn2n1 [Compound of Present Invention 33, 6-(2-ethylsulfanylphenyl)-2-trifluoromethylimidazo[1,2-b]pyridine] | – | 100
CCSc1ccccc1-c1cnc2nc(C(F)(F)F)cn2c1 [Compound of Present Invention 35, 6-(2-ethylsulfanylphenyl)-2-trifluoromethylimidazo[1,2-a]pyrimidine] | – | 100
CCSc1ccccc1-c1ccn2cc(C(F)(F)F)nc2c1 [Compound of Present Invention 37, 7-(2-ethylsulfanylphenyl)-2-trifluoromethylimidazo[1,2-a]pyridine] | – | 100
